Reference: PMC10114980, “Triple targeting of mutant EGFR^L858R/T790M, COX-2, and 15-LOX: design and synthesis of novel quinazolinone tethered phenyl urea derivatives for anti-inflammatory and anticancer evaluation” (Journal of Enzyme Inhibition and Medicinal Chemistry, 2023)
Several values for one entry are separate records, joined by “and”; a condition that tells them apart may be missing. Equal values may be shown once.

Assays:
ovine COX-1 = biological target: T1, ovine COX-1 (Ovis aries, UniProt P05979); experiment: In vitro COX-1 inhibition assay kit (Cayman); type: biochemical; conditions: mean ± SEM, n = 3 replicates
T1 sequence (P05979 25-600): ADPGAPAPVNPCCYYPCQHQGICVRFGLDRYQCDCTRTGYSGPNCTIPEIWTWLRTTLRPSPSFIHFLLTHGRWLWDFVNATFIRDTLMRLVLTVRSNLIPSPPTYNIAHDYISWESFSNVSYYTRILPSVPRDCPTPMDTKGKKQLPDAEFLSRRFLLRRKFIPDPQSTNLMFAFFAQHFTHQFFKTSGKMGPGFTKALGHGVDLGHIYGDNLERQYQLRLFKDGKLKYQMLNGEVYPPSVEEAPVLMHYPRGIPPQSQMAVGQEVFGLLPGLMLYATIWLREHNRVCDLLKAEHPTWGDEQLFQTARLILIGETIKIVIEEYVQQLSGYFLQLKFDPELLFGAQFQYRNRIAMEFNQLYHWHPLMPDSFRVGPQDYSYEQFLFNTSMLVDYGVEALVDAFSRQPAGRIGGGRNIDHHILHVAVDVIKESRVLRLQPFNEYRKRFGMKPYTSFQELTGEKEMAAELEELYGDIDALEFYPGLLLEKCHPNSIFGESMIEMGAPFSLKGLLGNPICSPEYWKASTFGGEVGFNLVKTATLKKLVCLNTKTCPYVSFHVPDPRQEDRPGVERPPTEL
Experimental: The half-maximal inhibitory concentration (IC50, μM) was determined, and the COX-2 selectivity index (SI) was calculated as IC50 (COX-1)/IC50 (COX-2).

wild-type EGFR = biological target: T2, wild-type EGFR (Homo sapiens, UniProt P00533); experiment: In vitro EGFR inhibition assay, wild type; type: biochemical; conditions: for IC50: read-out: EGFR^WT IC50
T2 construct: purchased AssayQuant Technologies, Inc. (Marlboro, MA, USA)

MDA-MB-231/ATCC = experiment: NCI single dose screen, MDA-MB-231/ATCC; type: cell-based; conditions: Homo sapiens, breast cancer, single dose 10^−5 M, read-out: growth inhibition percentage
Experimental: (§1) Screening of the anticancer activity of the newly synthesised compounds (6a, 6c, 6d, 6e, 6j, 6l, 6m, 6n, 6o, and 6p) was performed by the US National Cancer Institute (NCI) using 60 different human tumour cell lines in accordance with standard procedures formerly reported.
(§2) In vitro anticancer screening was carried out for the selected compounds at a single dose (10^−5 M) against 60 different human tumour cell lines of nine different cancer cell types: leukaemia, lung, colon, CNS, melanoma, ovarian, renal, prostate, and breast cancers.

MALME-3M = experiment: NCI single dose screen, MALME-3M; type: cell-based; conditions: Homo sapiens, melanoma, single dose 10^−5 M, read-out: growth inhibition percentage
Experimental: as §1, §2

SNB-19 = experiment: NCI single dose screen, SNB-19; type: cell-based; conditions: Homo sapiens; SNB-19, CNS cancer; single dose 10^−5 M; read-out: growth inhibition percentage
Experimental: as §1, §2

EKVX = experiment: NCI single dose screen, EKVX; type: cell-based; conditions: Homo sapiens, non-small cell lung cancer, single dose 10^−5 M, read-out: growth inhibition percentage
Experimental: as §1, §2

MDA-MB-435 = experiment: NCI single dose screen, MDA-MB-435; type: cell-based; conditions: Homo sapiens; MDA-MB-435, melanoma; single dose 10^−5 M; read-out: growth inhibition percentage
Experimental: as §1, §2

SW-620 = experiment: NCI single dose screen, SW-620; type: cell-based; conditions: Homo sapiens; SW-620, colon cancer; single dose 10^−5 M; read-out: growth inhibition percentage
Experimental: as §1, §2

UACC-257 = experiment: NCI single dose screen, UACC-257; type: cell-based; conditions: Homo sapiens; UACC-257, melanoma; single dose 10^−5 M; read-out: growth inhibition percentage
Experimental: as §1, §2

[1] = system: LPS-induced IL-6 production in RAW 264.7 cells; experiment: IL-6 production in LPS-activated RAW 264.7 cells (ELISA); type: cell-based; conditions: LPS-activated RAW 264.7 cells treated with 25 µM of the compound
HOP-62 = experiment: NCI single dose screen, HOP-62; type: cell-based; conditions: Homo sapiens; HOP-62, non-small cell lung cancer; single dose 10^−5 M; read-out: growth inhibition percentage
Experimental: as §1, §2

NCI-H460 = experiment: NCI single dose screen, NCI-H460; type: cell-based; conditions: Homo sapiens; NCI-H460, non-small cell lung cancer; single dose 10^−5 M; read-out: growth inhibition percentage
Experimental: as §1, §2

A549/ATCC = experiment: NCI single dose screen, A549/ATCC; type: cell-based; conditions: Homo sapiens, non-small cell lung cancer, single dose 10^−5 M, read-out: growth inhibition percentage
Experimental: as §1, §2

A498 = experiment: NCI single dose screen, A498; type: cell-based; conditions: Homo sapiens; A498, renal cancer; single dose 10^−5 M; read-out: growth inhibition percentage
Experimental: as §1, §2

SF-539 = experiment: NCI single dose screen, SF-539; type: cell-based; conditions: Homo sapiens, read-out: growth inhibition percentage
Experimental: as §1, §2

HCT-15 = experiment: NCI single dose screen, HCT-15; type: cell-based; conditions: Homo sapiens; HCT-15, colon cancer; single dose 10^−5 M; read-out: growth inhibition percentage
Experimental: as §1, §2

soybean 15-LOX = biological target: T3, soybean 15-LOX (Glycine max, UniProt P08170); experiment: 15-LOX inhibitor screening assay (Cayman); type: biochemical; conditions: mean ± SEM, n = 3 replicates
T3 sequence (P08170 1-839): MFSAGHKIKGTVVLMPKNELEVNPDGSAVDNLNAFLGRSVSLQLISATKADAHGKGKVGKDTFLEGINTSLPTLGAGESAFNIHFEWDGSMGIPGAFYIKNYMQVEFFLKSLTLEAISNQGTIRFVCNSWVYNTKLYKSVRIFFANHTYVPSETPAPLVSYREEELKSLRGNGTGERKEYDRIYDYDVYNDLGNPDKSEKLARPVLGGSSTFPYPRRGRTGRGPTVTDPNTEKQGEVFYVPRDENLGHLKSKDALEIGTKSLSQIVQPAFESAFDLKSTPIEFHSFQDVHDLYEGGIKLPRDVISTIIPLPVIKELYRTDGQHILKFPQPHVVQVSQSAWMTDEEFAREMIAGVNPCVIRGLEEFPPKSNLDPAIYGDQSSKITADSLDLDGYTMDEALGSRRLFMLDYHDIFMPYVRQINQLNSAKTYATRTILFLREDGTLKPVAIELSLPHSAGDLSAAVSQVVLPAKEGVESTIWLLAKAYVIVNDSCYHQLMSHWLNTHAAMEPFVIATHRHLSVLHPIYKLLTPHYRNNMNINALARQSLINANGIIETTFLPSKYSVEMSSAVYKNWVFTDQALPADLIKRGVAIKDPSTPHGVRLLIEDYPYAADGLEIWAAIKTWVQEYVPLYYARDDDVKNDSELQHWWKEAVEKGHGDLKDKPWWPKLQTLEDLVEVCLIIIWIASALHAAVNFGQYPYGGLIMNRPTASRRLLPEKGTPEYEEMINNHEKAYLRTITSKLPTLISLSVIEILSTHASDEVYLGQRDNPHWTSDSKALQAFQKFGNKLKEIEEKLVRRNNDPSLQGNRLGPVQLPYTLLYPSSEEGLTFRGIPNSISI

T2 sequence (P00533 25-1210): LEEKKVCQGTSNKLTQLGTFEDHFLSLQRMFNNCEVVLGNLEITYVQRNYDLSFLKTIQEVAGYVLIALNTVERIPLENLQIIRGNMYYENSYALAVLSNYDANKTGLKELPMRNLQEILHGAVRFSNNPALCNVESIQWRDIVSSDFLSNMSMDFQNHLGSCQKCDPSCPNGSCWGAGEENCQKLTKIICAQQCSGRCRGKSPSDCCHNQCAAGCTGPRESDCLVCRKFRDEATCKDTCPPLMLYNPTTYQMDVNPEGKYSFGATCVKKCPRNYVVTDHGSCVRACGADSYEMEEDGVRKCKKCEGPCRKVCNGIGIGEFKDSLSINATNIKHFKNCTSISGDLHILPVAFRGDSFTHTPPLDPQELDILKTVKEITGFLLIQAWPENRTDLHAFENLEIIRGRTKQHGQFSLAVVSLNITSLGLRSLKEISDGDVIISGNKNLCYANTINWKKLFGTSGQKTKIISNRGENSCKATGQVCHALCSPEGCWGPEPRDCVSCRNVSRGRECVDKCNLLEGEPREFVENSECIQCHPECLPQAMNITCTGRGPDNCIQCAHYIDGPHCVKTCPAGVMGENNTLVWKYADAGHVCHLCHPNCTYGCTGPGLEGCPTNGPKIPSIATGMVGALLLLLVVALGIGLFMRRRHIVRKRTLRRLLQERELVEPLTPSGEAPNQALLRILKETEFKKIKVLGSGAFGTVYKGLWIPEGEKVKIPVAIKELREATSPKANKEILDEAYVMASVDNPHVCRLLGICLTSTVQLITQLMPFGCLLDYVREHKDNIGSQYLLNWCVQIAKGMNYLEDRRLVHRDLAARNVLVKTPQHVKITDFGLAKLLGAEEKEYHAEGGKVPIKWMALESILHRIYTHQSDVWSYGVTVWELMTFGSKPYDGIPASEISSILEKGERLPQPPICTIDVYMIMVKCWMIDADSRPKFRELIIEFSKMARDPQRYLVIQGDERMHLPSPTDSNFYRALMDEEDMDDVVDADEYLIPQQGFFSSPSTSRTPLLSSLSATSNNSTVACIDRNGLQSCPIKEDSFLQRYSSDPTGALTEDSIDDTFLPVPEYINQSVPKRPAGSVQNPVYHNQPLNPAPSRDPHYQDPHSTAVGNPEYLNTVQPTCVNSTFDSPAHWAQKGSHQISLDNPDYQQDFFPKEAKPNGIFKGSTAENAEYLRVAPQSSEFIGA

Compound | IC50 (ovine COX-1) [µM] | IC50 (wild-type EGFR) [µM] | inhibition at 10 µM (MDA-MB-231/ATCC) [%] | inhibition at 10 µM (MALME-3M) [%] | inhibition at 10 µM (SNB-19) [%] | inhibition at 10 µM (EKVX) [%] | inhibition at 10 µM (MDA-MB-435) [%] | inhibition at 10 µM (SW-620) [%] | inhibition at 10 µM (UACC-257) [%] | IL-6 concentration [1] | inhibition at 10 µM (HOP-62) [%] | inhibition at 10 µM (NCI-H460) [%] | inhibition at 10 µM (A549/ATCC) [%] | inhibition at 10 µM (A498) [%] | inhibition at 10 µM (SF-539) [%] | inhibition at 10 µM (HCT-15) [%] | melting point [°C] | IC50 (soybean 15-LOX) [µM] | EGFR^WT IC50 (wild-type EGFR)
CN1c2ccccc2C(=O)N(NC(=O)Nc2ccccc2)C1c1ccc(F)cc1 (stereo not drawn) [Compound 6d, 1-(2-(4-Fluorophenyl)-1-methyl-4-oxo-1,4-dihydroquinazolin-3(2H)-yl)-3-phenylurea] | 4.56 ± 1.33 | > 100 | < 10 | < 10 | < 10 | < 10 | < 10 | < 10 | < 10 | 358.7 ± 12.85 pg/mL | < 10 | < 10 | < 10 | < 10 | < 10 | < 10 | 230 to 232 | 1.96 ± 0.23 | 
CN1c2ccccc2C(=O)N(NC(=O)Nc2ccc(F)cc2)C1c1ccc([N+](=O)[O-])cc1 (stereo not drawn) [Compound 6o, 1-(4-Fluorophenyl)-3–(1-methyl-2-(4-nitrophenyl)-4-oxo-1,4-dihydroquinazolin-3(2H)-yl)urea] | > 100 | 52.4 ± 1.25 | 22.5 | 14.1 | 11.4 | 19.8 | 19.9 | < 10 | < 10 | 37.23 pg/mL and 37.23 ± 1.19 pg/mL | < 10 | < 10 | < 10 | < 10 | < 10 | 10.7 | 250 to 252 | 1.42 ± 0.23 | 
COc1ccc(NC(=O)NN2C(=O)c3ccccc3N(C)C2c2ccc(OC)cc2)cc1 (stereo not drawn) [Compound 6j, 1-(4-Methoxyphenyl)-3-(2-(4-methoxyphenyl)-1-methyl-4-oxo-1,4-dihydroquinazolin-3(2H)-yl)urea] | 26.9 ± 3.03 | > 100 | < 10 | < 10 | < 10 | < 10 | < 10 | < 10 | 21.9 | 164.6 ± 5.09 pg/mL | < 10 | < 10 | < 10 | < 10 | < 10 | < 10 | 205 to 207 | 1.95 ± 0.35 | 
CC1N(NC(=O)Nc2ccc(F)cc2)C(=O)c2ccccc2N1C (stereo not drawn) [Compound 6l, 1–(1,2-Dimethyl-4-oxo-1,4-dihydroquinazolin-3(2H)-yl)-3-(4-fluorophenyl)urea] |  | > 100 | < 10 | < 10 | < 10 | < 10 | < 10 | < 10 | < 10 | 536.8 ± 3.55 pg/mL | < 10 | < 10 | < 10 | < 10 | < 10 | < 10 | 187 to 190 | 1.58 ± 0.28 | 
CN1c2ccccc2C(=O)N(NC(=O)Nc2ccc(F)cc2)C1c1ccc(F)cc1 (stereo not drawn) [Compound 6n, 1-(4-Fluorophenyl)-3-(2–(4-fluorophenyl)-1-methyl-4-oxo-1,4-dihydroquinazolin-3(2H)-yl)urea] | 10.5 ± 1.48 | > 100 | 29.8 | 17.6 | < 10 | 16.4 | 25.8 | < 10 | < 10 | 535.3 ± 15.25 pg/mL | 13.3 | < 10 | < 10 | < 10 | 10.1 | 17.5 | 214 to 216 | 2 ± 0.26 | 
COc1ccc(C2N(NC(=O)Nc3ccc(F)cc3)C(=O)c3ccccc3N2C)cc1 (stereo not drawn) [Compound 6p, 1-(4-Fluorophenyl)-3-(2–(4-methoxyphenyl)-1-methyl-4-oxo-1,4-dihydroquinazolin-3(2H)-yl)urea] | 88.5 ± 3.01 | > 100 | 12.6 | < 10 | < 10 | < 10 | 10.7 | < 10 | < 10 | 237.2 ± 3.19 pg/mL | < 10 | < 10 | < 10 | < 10 | < 10 | < 10 | 224 to 226 | 3.87 ± 2.1 | 
CN1CN(NC(=O)Nc2ccccc2)C(=O)c2ccccc21 [Compound 6a, 1-(1-Methyl-4-oxo-1,4-dihydroquinazolin-3(2H)-yl)-3-phenylurea] | 12.5 ± 1.36 | > 100 | < 10 | < 10 | < 10 | < 10 | < 10 | < 10 | < 10 | 173.7 ± 4.77 pg/mL | < 10 | < 10 | < 10 | < 10 | < 10 | < 10 | 240 to 241 | 1.48 ± 0.27 | no significant activity
